Reference: patent publication US20260191843A1, “METHODS AND MATERIALS FOR TREATING BURNS” (The Penn State Research Foundation, priority 2022, published 2026)
Entries after “also recorded” stand apart in the source; their conditions may differ.

What was measured:
[1] = system: deep-partial thickness burn wound on the mouse dorsum; experiment: Burn wound healing in mice: wound area and percentage of wound closure; format: in vivo, wild-type C57BL/6 mouse
Procedure: (§1) Place the 8-10-week-old wild-type C57BL/6 mouse on its side on a sterile paper sheet. Anesthesia was achieved and maintained with isoflurane utilizing an induced with an intraperitoneal injection of ketamine (60 mg/kg) and xylazine (4 mg/kg). An adequate depth of anesthesia was ensured via lack of a withdrawal reflex when a toe pinch was performed. The depth of anesthesia was monitored as well as respiration and mucous membrane color (pink: normal, pale: blood loss, blue: cyanosis). The surgeon(s) used sterile gloves, mask and a clean lab coat. Sterile surgical instruments (autoclaved) were used during all survival surgeries. The skin was prepared for creation of wound on the dorsal and side skin (from neck to tail) by shaving with a mechanical shaver and then applying a hair removal cream on the skin for 3-5 minutes. Hair was removed completely by gently wiping the skin with cotton balls soaked in warm water. Skin disinfection around the incision site was done using 70% ethanol and betadine for 3 times. Then, the dorsal skin was folded and raised cranially and caudally at the midline using index fingers and thumbs, and the animal was placed in a lateral position. The burn wound was created by contacting a 10 mm diameter brass heating device maintained at 100° C. to the mouse dorsum at a constant pressure. The device remained in contact with the skin for 4 seconds in order to create a deep-partial thickness burn. After burn wound creation, the wound site was photographed, the wound area was circled using permanent pen marker, and the wound surface was covered with a TEGADERM™ (3M) sterile transparent dressing. After surgery, mice were given SR Buprenorphine (0.05 mg/kg) for post-operative analgesia. Then, mice were placed in a clean cage on the heating pad for 30 minutes to help the recovery process. Immediately after the recovery, mice were randomly grouped and treated with either with 4-AP (systemic, ip) or saline (control).
Functional analysis of the burn wound area was performed by placing a transparent sheet on the surface of the circled wound, and placing a ruler close to the burn wound to capture photographs of individual wounds on 0, 3, 7, 10, 14, 18, 21, and 26 days. The wound size of each individual mice was measured and compared to zero day wound diameter from the circled sheet. The percentage of wound closure was calculated using this formula: (area of original wound-area of the actual burn wound)/area of original burn wound×100.

[2] = system: deep-partial thickness burn wound on the mouse dorsum; experiment: Morphometric burn wound healing assessment at day 26 (H&E and Masson's trichrome staining); format: in vivo, wild-type C57BL/6 mouse
Procedure: as §1, with “(control). […]” for “(control).”

[3] = 4-AP treated vs saline-treated mice

SMILES: Nc1ccncc1 [4-AP, 4-aminopyridine]
- acceleration of wound closure ([1]; by day 3, systemic 4-AP vs saline, P between 0.01 and 0.05): significant increase in wound closure by day 3; also recorded: accelerated wound closure by day 3
- closed wounds ([1]; by day 26, systemic 4-AP): closed wounds by day 26
- reduced wound area (relative to initial wound area) ([1]; day 5, systemic (ip) 4-AP, saline treated animals showed 25% expansion of wound area): 5%
- protection from expansion of wound size (necrosis and apoptosis at zone of stasis) ([1]; systemic 4-AP vs saline): significant burn wound protection from expansion of wound; also recorded: significantly prevented expansion of wound size
- burn wound closure and tissue regeneration as compared to control animals ([1]; systemic 4-AP vs systemic saline): improved burn wound closure and tissue regeneration
- collagen deposition in the healing wound (Masson's Trichrome) [2, 3]: elevated collagen deposition
- thickness of newly formed epidermis within the healed wound (H&E) [2, 3]: significantly thicker
- re-epithelialization ([2]; not completed in saline-treated mice): re-epithelialization was complete
